Results as given in PMC12068666, “Synthesis of thiazole-integrated pyrrolotriazinones: evaluations of cytotoxicity and effects on PI3K levels in cancer cells” (Turkish Journal of Chemistry, 2025).

What was measured:
[1] = test system: MCF-7 cells; test: MTT assay, antiproliferative activity, MCF-7; assay type: cell-based, human; settings: for IC50: Homo sapiens, MCF7, MTT, 24 h treatment, mean ± SD; for Selectivity Index (SI) MCF-7: IC50 of healthy cells (NIH/3T3)/IC50 of cancer cells
Method: (§1) MCF-7 (human ER + breast cancer, HTB-22, USA), A549 (human nonsmall cell lung cancer, ATTC CRM-CCL-185, USA), HepG2 (human liver cancer, ATTC HB-8065, USA), and NIH/3T3 (mouse embryonic fibroblast, ATCC, CRL-1658, USA) cells were maintained in DMEM supplemented with 10% fetal bovine serum and 1% penicillin/streptomycin. The cells were maintained under appropriate conditions (37 °C, 5% CO2).
(§2) The antiproliferative activity of the newly synthesized compounds was measured using the MTT assay as described in a previous study. Briefly, cells were seeded at a density of 6 × 10^3 cells/well and incubated for 24 h in a 37 °C humidified incubator with 5% CO2. Afterwards, the cells were treated with increasing concentrations (1, 2.5, 5, 10, 25, 50, 75, and 100 μM) of compounds and incubated for another 24 h. Moreover, some cells were incubated with doxorubicin (1, 5, 10, 25, and 50 μM) for comparison, while other cells treated only with 1% DMSO was used as the solvent control. After incubation, 20 μL of MTT solution (5 mg/mL in PBS) was added to each well, and the plate was incubated for 4 h under the same conditions. Following this period, the medium was discarded and replaced with DMSO. The absorbance of dissolved formazan crystals was measured using a multiplate reader. The IC50 value and the selectivity index of each compound were calculated as previously described.
(§3) The antiproliferative effect of all newly synthesized thiazole-integrated pyrrolotriazinone derivatives were assessed against cancer cell lines (MCF-7, A549, and HepG2) as well as a healthy cell line (NIH/3T3) using the MTT assay. The IC50 values were determined through the nonlinear regression algorithm for log (inhibitor) versus normalized response-variable slope, as implemented in GraphPad [Y = 100/(1 + 10^X−LogIC50), where X represents the logarithm of the inhibitor concentration and Y denotes the response]. Additionally, Selectivity Indices (SI: IC50 of healthy cells/IC50 of cancer cells) were calculated.

[2] = test system: A549 cells; test: MTT assay, antiproliferative activity, A549; assay type: cell-based, human; settings: for IC50: Homo sapiens, A549, MTT, 24 h treatment, mean ± SD; for Selectivity Index (SI) A549: IC50 of healthy cells (NIH/3T3)/IC50 of cancer cells
Method: as §1, §2, §3

[3] = test system: HepG2 cells; test: MTT assay, antiproliferative activity, HepG2; assay type: cell-based, human; settings: for IC50: Homo sapiens, HepG2, MTT, 24 h treatment, mean ± SD; for Selectivity Index (SI) HepG2: IC50 of healthy cells (NIH/3T3)/IC50 of cancer cells
Method: as §1, §2, §3

[4] = test system: NIH/3T3 cells; test: MTT assay, healthy cell line NIH/3T3; assay type: cell-based; settings: Mus musculus, NIH3T3, 24 h treatment, mean ± SD
Method: as §1, §2, §3

| SMILES | IC50 [1] [µM] | Selectivity Index (SI) MCF-7 [1] | IC50 [2] [µM] | Selectivity Index (SI) A549 [2] | IC50 [3] [µM] | Selectivity Index (SI) HepG2 [3] | IC50 [4] [µM] |
| --- | --- | --- | --- | --- | --- | --- | --- |
| O=c1n(-c2nc(-c3ccc(F)c(F)c3)cs2)ncc2cccn12 [Compound 24, 3-(4-(3,4-difluorophenyl)thiazol-2-yl)pyrrolo[1,2-d][1,2,4]triazin-4(3H)-one] | 33.2 ± 0.49 | 4.72 | 45.23 ± 0.41 | 3.46 | 25.3 ± 1.06 | 6.19 | > 100 |
| O=c1n(-c2nc(-c3ccc(Br)cc3)cs2)ncc2cccn12 [Compound 22, 3-(4-(4-bromophenyl)thiazol-2-yl)pyrrolo[1,2-d][1,2,4]triazin-4(3H)-one] | 55.6 ± 1.05 | 1.68 | 71.2 ± 0.74 | 1.31 | 51.85 ± 0.23 | 1.80 | 93.46 ± 0.74 |
| O=c1n(-c2nc(-c3ccc4ccccc4c3)cs2)ncc2cccn12 [Compound 29, 3-(4-(naphthalen-2-yl)thiazol-2-yl)pyrrolo[1,2-d][1,2,4]triazin-4(3H)-one] | > 100 | 1.03 | > 100 | 1.19 | > 100 | 1.26 | > 100 |
| O=c1n(-c2nc(-c3ccc(F)cc3)cs2)ncc2cccn12 [Compound 20, 3-(4-(4-fluorophenyl)thiazol-2-yl)pyrrolo[1,2-d][1,2,4]triazin-4(3H)-one] | 39.8 ± 0.54 | 4.93 | 44.5 ± 0.51 | 4.41 | 69.7 ± 1.26 | 2.81 | > 100 |
| O=c1n(-c2nc(-c3ccc(-c4ccccc4)cc3)cs2)ncc2cccn12 [Compound 28, 3-(4-([1,1′-biphenyl]-4-yl)thiazol-2-yl)pyrrolo[1,2-d][1,2,4]triazin-4(3H)-one] | 63.17 ± 0.35 | 2.79 | 78.23 ± 0.05 | 2.25 | 44.8 ± 1.06 | 3.93 | > 100 |
| COc1ccc(-c2csc(-n3ncc4cccn4c3=O)n2)cc1 [Compound 17, 3-(4-(4-methoxyphenyl)thiazol-2-yl)pyrrolo[1,2-d][1,2,4]triazin-4(3H)-one] | > 100 | 1.34 | > 100 | 1.44 | > 100 | 1.22 | > 100 |
| O=c1n(-c2nc(-c3ccccc3)cs2)ncc2cccn12 [Compound 14, 3-(4-phenylthiazol-2-yl)pyrrolo[1,2-d][1,2,4]triazin-4(3H)-one] | > 100 | 0.96 | > 100 | 1.25 | > 100 | 1.04 | > 100 |
| O=c1n(-c2nc(-c3ccco3)cs2)ncc2cccn12 [Compound 31, 3-(4-(furan-2-yl)thiazol-2-yl)pyrrolo[1,2-d][1,2,4]triazin-4(3H)-one] | 91.2 ± 1.06 | 1.91 | > 100 | 1.67 | > 100 | 1.69 | > 100 |
